In patent US20260069581A1, “METHODS AND COMPOSITIONS FOR CANCER THERAPY” (OHIO STATE INNOVATION FOUNDATION, priority 2020, published 2026):

Columns and labels:
[1] = system: luciferase-tagged MOLM13 cells; experiment: In vivo MOLM13 xenograft study, efficacy; details: MOLM13-engrafted NCG mice; KPT-9274 100 mg/kg daily, AR-42 20 mg/kg every another day, oral gavage
Description: NCG mice were engrafted with luciferase-tagged MOLM13 cells and treated with vehicle, 20 mg/kg AR-42, 100 mg/kg KPT-9274 and AR-42/KPT-9274 in combination.
Male NOD-Prkdc^em26cd52Il2rg^em26cd22/NjuCrl (NCG) mice (RRID:IMSR_CRL:572) (aged 6-8 weeks) were obtained from Charles River Laboratory. Mice were group-housed under conditions of constant photoperiod (12-hour light/12-hour dark), temperature, and humidity with adlibitum access to water and irradiated standard pelleted chow. 104 luciferase-tagged MOLM13 cells were injected via tail vein into NCG mice. On day 5 post-engraftment, mice were randomized to receive placebo (vehicle; Karyopharm Therapeutics) once daily, 100 mg/kg of KPT-9274 (Karyopharm Therapeutics) once daily, 20 mg/kg AR-42 every another day and the combination of KPT-9274 and AR-42 via oral gavage. Overall survival was the primary end point for the majority of the mice. A separate cohort of mice per group was used to monitor leukemic progression using IVIS imaging. Mice were monitored by animal technicians who were blinded to the treatment groups and determined when mice met early removal criteria (20% weight loss, lethargy, hunching, and poor body condition). Mice were euthanized by CO2 inhalation.
To determine the clinical relevance of the drug combination, the efficacy of co-treatment of AR-42 and KPT-9274 was tested in the MOLM13 xenograft model. […]

[2] = system: DNA repair genes in patient LICs (CD34+ CD38−); experiment: LC-RNA-seq of primary patient LICs; format: cell-based, human
Description: FIG. 5A-5E show representative data that AR-42 and KPT-9274 synergistically alter DNA repair gene sets of LIC transcriptomes. […] Briefly, primary cells from 5 patients were treated with drug combination or vehicle for 12 hours before LICs (CD34^+ CD38^−) were sorted for LC-RNA-seq. […] Cutoff Log 2FC=1.5; p-value<10e^−2. […] The hierarchical clustering of genes and samples was performed using Euclidean distance matrix and Ward's clustering method.
Limiting cell-RNA-seq (LC-RNA-seq) for primary patient LICs. LC-RNA-seq was performed as previously described to determine transcriptome profiles and differentially expressed genes (DEGs) of patient LICs treated with various inhibitors (21). Briefly, patient cells were cultured in the presence of cytokines and treated with vehicle, single agents or drug combination. 300 viable LICs from treated patient samples were sorted directly into SMART-seq lysis buffer with FACSAria Fusion (BD) based on putative stem cell markers CD34^+ CD38^− (22). […] The Clontech SMARTer v4 kit (Takara Bio USA, Inc., Mountain View, CA) was used for preamplifying samples prior to library construction with the Nextera XT DNA Library Prep Kit (Illumina, Inc., San Diego, CA). Samples were sequenced to a depth of 15-20 million 2×150 bp clusters with the Illumina HiSeq 4000 platform. After quality control with CLEAR selection process and size-normalization, DEGs were called with DESeqs with (FDR) adjusted p-value <0.05. Principle component analysis (PCA) plots were created from count tables which were normalized by size and transformed. For pathway analysis, the list of DEGs, containing gene IDs and corresponding expression values, was uploaded into the IPA software (Qiagen) (Ingenuity Pathway Analysis, RRID:SCR_008653). […]
The synthetic lethality of AR-42 and KPT-9274 is conferred by simultaneous suppression of HR and NHEJ pathways in leukemia initiating cells (LICs). […] Treated LICs were analyzed for transcriptional differences and DNA repair mechanisms were highlighted.

[3] = system: NHEJ activity in EJDR-reporter-stable U2OS cells; experiment: EJDR reporter assay, NHEJ DsRed; format: cell-based
Description: EJDR reporter assay. The EJDR assay was described previously (20). EJDR reporter cells were plated at 5×10^5 cells per well in 10% FBS and RPM11640. After drug treatments, cells were grown in 10% Tet-free FBS (100-800; Gemini) and RPM11640. Incorporated I-Sce1 was induced with Shield1 (632189; Clontech) and triamcinolone (TA) (T6510; Sigma Aldrich) ligands for 24 hours. NHEJ and HR repair activities were assessed 48 hours post induction by quantification of DsRed- and GFP-positive cells on Cytomics FC 500 Flow Cytometer (Beckman Coulter, Brea, CA).
It was unclear whether the potent ability of HDAC inhibitor to induce apoptosis of AML cells in combination with NAMPT inhibition was due to the loss of HR or NHEJ activity alone or both together. Accordingly, HR and NHEJ activities in AML cells exposed to these treatments were examined using the EJDR reporter system (FIG. 6B). EJDR-reporter-stable U2OS cells were treated with vehicle, single agents, or drug combination before being incubated with ligands, TA and Shield 1. […] The expression of D-NHEJ pathway factors, Ku70 and DNA-PKcs, and ATM pathway mediators, CHEK1 and CHEK2, were abolished by AR-42 and KPT-9274 co-treatment. […] Therefore, suppression of HDAC8 can attenuate HR and D-NHEJ gene expressions, resulting in NAMPT inhibitor sensitivity.

PARP1 = experiment: co-IP and western blotting of PARP1 mono-ADP-ribosylation; format: cell-based; details: eradicated by knockdown of SIRT6
Description: Thereafter, cells were fixed, permeabilized and stained with BV421 mouse anti-H2A.X (pS139) (Clone N1-431). Stained cells were analyzed by flow cytometry. Results are shown as mean±SEM of duplicates. *p<0.05. N.S.: not significant. […] Results are shown as mean±SEM of duplicates. *p<0.05. […] MOLM13 cells were treated with vehicle control, 0.4 μM or 0.8 μM AR-42 alone, 0.1 μM or 0.25 μM KPT-2974 alone and drug combination for 24 hours before being subject to Western blotting analysis of HR, NHEJ and ATM markers. GAPDH served as loading control. Results are representative of two independent experiments. In the FIG. the treatment concentrations, protein detected in the given Western blot, and molecular weight of the protein detected are as shown in the figure. […] Scrambled or shHDAC8-transduced MOLM13 cells were treated with vehicle, 0.1 μM or 0.25 μM KPT-2974 before being subject to immunoblotting analysis of DNA repair targets. GAPDH serves as loading control. Results are representative of two independent experiments. In the FIG. the treatment concentrations, protein detected in the given Western blot, and molecular weight of the protein detected are as shown in the figure. […] PAPR1 was immunoprecipitated and mono-ADP-ribosylation was detected by western blotting. […]
To elucidate the mechanism of the synergism between shSIRT6 and KPT-9274, the accumulation of phosph-H2A.X was measured. […]

Compound | median survival time [1] [days] | mRNA levels of HR genes (NBN, RBBP8, RAD51, BRCA1), D-NHEJ genes (XRCC4, XRCC5) and ATM pathway genes (CHEK1, CHEK2) ([2]; AR-42 alone or in combination with KPT-9274, 12 hours) | NHEJ activity (percentage of DsRed+ cells) [3] | BRCA1 and XRCC4 expression ([2]; KPT-9274 alone, in some patients) | yields of D-NHEJ transcripts (XRCC6, PRKDC) and B-NHEJ gene PARP1 ([2]; in all patients) | mono-ADP-ribosylation of PARP1 (PARP1)
CC(C)[C@H](C(=O)Nc1ccc(C(=O)NO)cc1)c1ccccc1 [AR-42, (S)—N-Hydroxy-4-(3-methyl-2-phenylbutanamido)benzamide] | 29 | downregulated | NHEJ deficiency | – | – | –
Nc1ccc(/C=C/C(=O)NCc2cc3cc(-c4ccc(C(=O)N5CCC(F)(F)CC5)cc4)cc(-c4ccc(F)cc4)c3o2)cn1 [KPT-9274, (E)-3-(6-aminopyridin-3-yl)-N-[[5-[4-(4,4-difluoropiperidine-1-carbonyl)phenyl]-7-(4-fluorophenyl)-1-benzofuran-2-yl]methyl]prop-2-enamide] | 27 | – | more robust reduction | upregulated | decreased | enhanced
